# ChEMBL document CHEMBL3046616, “Design, synthesis, and biological activities of milbemycin analogues” (2011)
# Tests used:
# Assay type in all cases: functional
# Aphis fabae = test: Insecticidal activity against Aphis fabae (black bean aphid) infested soybean tender shoots measured 48 hr post compound dose by modified FAO dip method; set-up: concentration or dose not given beside the values
# Mythimna separata = test: Insecticidal activity against Mythimna separata (Oriental armyworm) fourth-instar larvae reared compound pre-treated corn leaves assessed as insect mortality at 200 mg/L measured 2 days post compound dose
# Tetranychus cinnabarinus = test: Insecticidal activity against Tetranychus cinnabarinus (carmine spider mite) […] assessed as larvicidal activity at 0.006 mg/L after 48 hr
Compound,mortality (Aphis fabae) [%],mortality at 200 µg/mL (Mythimna separata) [%],mortality at 0.006 µg/mL (Tetranychus cinnabarinus) [%]
CCC(C)[C@H]1O[C@]2(CC[C@@H]1C)C[C@@H]1C[C@@H](C/C=C(\C)[C@@H](OC(=O)c3ccc(F)cc3)[C@@H](C)/C=C/C=C3\CO[C@@H]4[C@H](O)C(C)=C[C@@H](C(=O)O1)[C@]34O)O2 (some centres not stated),56.8,83.3,47.4
CCC(C)[C@H]1O[C@]2(CC[C@@H]1C)C[C@@H]1C[C@@H](C/C=C(\C)[C@@H](OC(=O)c3ccc(F)cc3)[C@@H](C)/C=C/C=C3\CO[C@@H]4/C(=N/OC)C(C)=C[C@@H](C(=O)O1)[C@]34O)O2 (some centres not stated),0,0,19.8
CCC(C)[C@H]1O[C@]2(CC[C@@H]1C)C[C@@H]1C[C@@H](C/C=C(\C)[C@@H](O[C@H]3C[C@H](OC)[C@@H](OC(=O)/C(=N\OC)c4ccccc4)[C@H](C)O3)[C@@H](C)/C=C/C=C3\CO[C@@H]4/C(=N/OC)C(C)=C[C@@H](C(=O)O1)[C@]34O)O2 (some centres not stated),15.9,0,36.6
CCC(C)[C@H]1O[C@]2(CC[C@@H]1C)C[C@@H]1C[C@@H](C/C=C(\C)[C@@H](OC(=O)Cc3ccccc3)[C@@H](C)/C=C/C=C3\CO[C@@H]4[C@H](O)C(C)=C[C@@H](C(=O)O1)[C@]34O)O2 (some centres not stated),62.7,89.9,44.9
CCC(C)[C@H]1O[C@]2(CC[C@@H]1C)C[C@@H]1C[C@@H](C/C=C(\C)[C@@H](O[C@H]3C[C@H](OC)[C@@H](OC(=O)Nc4ccc(Cl)cc4)[C@H](C)O3)[C@@H](C)/C=C/C=C3\CO[C@@H]4[C@H](O)C(C)=C[C@@H](C(=O)O1)[C@]34O)O2 (some centres not stated),90.3,77.9,29.8
CCC(C)[C@H]1O[C@]2(CC[C@@H]1C)C[C@@H]1C[C@@H](C/C=C(\C)[C@@H](O[C@H]3C[C@H](OC)[C@@H](OC(=O)c4ccc(C)cc4)[C@H](C)O3)[C@@H](C)/C=C/C=C3\CO[C@@H]4[C@H](O)C(C)=C[C@@H](C(=O)O1)[C@]34O)O2 (some centres not stated),92.5,89.7,4.5
CCC(C)[C@H]1O[C@]2(CC[C@@H]1C)C[C@@H]1C[C@@H](C/C=C(\C)[C@@H](OC(=O)/C(=N\OC)c3ccccc3)[C@@H](C)/C=C/C=C3\CO[C@@H]4[C@H](O)C(C)=C[C@@H](C(=O)O1)[C@]34O)O2 (some centres not stated),86.3,75.5,41.5
CCC(C)[C@H]1O[C@]2(CC[C@@H]1C)C[C@@H]1C[C@@H](C/C=C(\C)[C@@H](OC(=O)c3ccccc3)[C@@H](C)/C=C/C=C3\CO[C@@H]4/C(=N/OC)C(C)=C[C@@H](C(=O)O1)[C@]34O)O2 (some centres not stated),7.2,0,9.2
CCC(C)[C@H]1O[C@]2(CC[C@@H]1C)C[C@@H]1C[C@@H](C/C=C(\C)[C@@H](OC(=O)c3ccc(C)cc3)[C@@H](C)/C=C/C=C3\CO[C@@H]4[C@H](O)C(C)=C[C@@H](C(=O)O1)[C@]34O)O2 (some centres not stated),56.4,87.6,27.1
C/C=C/C(=O)O[C@H]1[C@H](C)O[C@@H](O[C@@H]2/C(C)=C/C[C@@H]3C[C@@H](C[C@]4(CC[C@H](C)[C@@H](C(C)CC)O4)O3)OC(=O)[C@@H]3C=C(C)[C@@H](O)[C@H]4OC/C(=C\C=C\[C@@H]2C)[C@]43O)C[C@@H]1OC (some centres not stated),100,88.9,25.1
C/C=C\C(=O)O[C@@H]1/C(C)=C/C[C@@H]2C[C@@H](C[C@]3(CC[C@H](C)[C@@H](C(C)CC)O3)O2)OC(=O)[C@@H]2C=C(C)[C@@H](O)[C@H]3OC/C(=C\C=C\[C@@H]1C)[C@]32O (some centres not stated),73.5,76.8,40.9
CCC(C)[C@H]1O[C@]2(CC[C@@H]1C)C[C@@H]1C[C@@H](C/C=C(\C)[C@@H](O[C@H]3C[C@H](OC)[C@@H](OC(=O)c4cc(F)c(Cl)nc4Cl)[C@H](C)O3)[C@@H](C)/C=C/C=C3\CO[C@@H]4[C@H](O)C(C)=C[C@@H](C(=O)O1)[C@]34O)O2 (some centres not stated),88.2,0,16.5
CCC(C)[C@H]1O[C@]2(CC[C@@H]1C)C[C@@H]1C[C@@H](C/C=C(\C)[C@@H](O[C@H]3C[C@H](OC)[C@@H](OC(=O)c4ccc(F)cc4)[C@H](C)O3)[C@@H](C)/C=C/C=C3\CO[C@@H]4/C(=N/OC)C(C)=C[C@@H](C(=O)O1)[C@]34O)O2 (some centres not stated),11.2,0,11.1
CCC(C)[C@H]1O[C@]2(CC[C@@H]1C)C[C@@H]1C[C@@H](C/C=C(\C)[C@@H](OC(=O)CC(C)(C)C)[C@@H](C)/C=C/C=C3\CO[C@@H]4[C@H](O)C(C)=C[C@@H](C(=O)O1)[C@]34O)O2 (some centres not stated),76.5,88.9,35.5
CCC(C)[C@H]1O[C@]2(CC[C@@H]1C)C[C@@H]1C[C@@H](C/C=C(\C)[C@@H](OC(=O)Nc3ccccc3)[C@@H](C)/C=C/C=C3\CO[C@@H]4[C@H](O)C(C)=C[C@@H](C(=O)O1)[C@]34O)O2 (some centres not stated),96.8,100,55.2
CCC(C)[C@H]1O[C@]2(CC[C@@H]1C)C[C@@H]1C[C@@H](C/C=C(\C)[C@@H](O[C@H]3C[C@H](OC)[C@@H](OC(=O)c4ccccc4)[C@H](C)O3)[C@@H](C)/C=C/C=C3\CO[C@@H]4/C(=N/OC)C(C)=C[C@@H](C(=O)O1)[C@]34O)O2 (some centres not stated),5.9,0,8.6
CCC(C)[C@H]1O[C@]2(CC[C@@H]1C)C[C@@H]1C[C@@H](C/C=C(\C)[C@@H](O[C@H]3C[C@H](OC)[C@@H](OC(=O)C4C(C=C(Br)Br)C4(C)C)[C@H](C)O3)[C@@H](C)/C=C/C=C3\CO[C@@H]4[C@H](O)C(C)=C[C@@H](C(=O)O1)[C@]34O)O2 (some centres not stated),100,83.3,13.4
CCC(C)[C@H]1O[C@]2(CC[C@@H]1C)C[C@@H]1C[C@@H](C/C=C(\C)[C@@H](OC(=O)c3ccc(OC)cc3)[C@@H](C)/C=C/C=C3\CO[C@@H]4[C@H](O)C(C)=C[C@@H](C(=O)O1)[C@]34O)O2 (some centres not stated),75.2,100,34.8
CCC(C)[C@H]1O[C@]2(CC[C@@H]1C)C[C@@H]1C[C@@H](C/C=C(\C)[C@@H](OC(=O)c3ccc(OC)cc3)[C@@H](C)/C=C/C=C3\CO[C@@H]4/C(=N/OC)C(C)=C[C@@H](C(=O)O1)[C@]34O)O2 (some centres not stated),6.3,0,5.9
CCC(C)[C@H]1O[C@]2(CC[C@@H]1C)C[C@@H]1C[C@@H](C/C=C(\C)[C@@H](OC(=O)c3ccc(Cl)cc3)[C@@H](C)/C=C/C=C3\CO[C@@H]4/C(=N/OC)C(C)=C[C@@H](C(=O)O1)[C@]34O)O2 (some centres not stated),0,0,10.2
CCC(C)[C@H]1O[C@]2(CC[C@@H]1C)C[C@@H]1C[C@@H](C/C=C(\C)[C@@H](O[C@H]3C[C@H](OC)[C@@H](OC(=O)C4C(C=C(Cl)Cl)C4(C)C)[C@H](C)O3)[C@@H](C)/C=C/C=C3\CO[C@@H]4[C@H](O)C(C)=C[C@@H](C(=O)O1)[C@]34O)O2 (some centres not stated),92.3,87.2,11.8
CCC(C)[C@H]1O[C@]2(CC[C@@H]1C)C[C@@H]1C[C@@H](C/C=C(\C)[C@@H](OC(=O)c3ccccc3)[C@@H](C)/C=C/C=C3\CO[C@@H]4[C@H](O)C(C)=C[C@@H](C(=O)O1)[C@]34O)O2 (some centres not stated),76.5,88.6,31.1
CCC(C)[C@H]1O[C@]2(CC[C@@H]1C)C[C@@H]1C[C@@H](C/C=C(\C)[C@@H](O[C@H]3C[C@H](OC)[C@@H](OC(=O)c4ccc(Cl)cc4)[C@H](C)O3)[C@@H](C)/C=C/C=C3\CO[C@@H]4/C(=N/OC)C(C)=C[C@@H](C(=O)O1)[C@]34O)O2 (some centres not stated),8.7,0,6.2
CCC(C)[C@H]1O[C@]2(CC[C@@H]1C)C[C@@H]1C[C@@H](C/C=C(\C)[C@@H](O[C@H]3C[C@H](OC)[C@@H](OC(=O)Nc4ccccc4)[C@H](C)O3)[C@@H](C)/C=C/C=C3\CO[C@@H]4[C@H](O)C(C)=C[C@@H](C(=O)O1)[C@]34O)O2 (some centres not stated),97.6,100,45.2
CCC(C)[C@H]1O[C@]2(CC[C@@H]1C)C[C@@H]1C[C@@H](C/C=C(\C)[C@@H](OC(=O)/C(=N\OC)c3ccccc3)[C@@H](C)/C=C/C=C3\CO[C@@H]4/C(=N/OC)C(C)=C[C@@H](C(=O)O1)[C@]34O)O2 (some centres not stated),6.5,0,49
CCC(C)[C@H]1O[C@]2(CC[C@@H]1C)C[C@@H]1C[C@@H](C/C=C(\C)[C@@H](OC(=O)Nc3ccc(Cl)cc3)[C@@H](C)/C=C/C=C3\CO[C@@H]4[C@H](O)C(C)=C[C@@H](C(=O)O1)[C@]34O)O2 (some centres not stated),67.8,88.5,30.8
CCC(C)[C@H]1O[C@]2(CC[C@@H]1C)C[C@@H]1C[C@@H](C/C=C(\C)[C@@H](O[C@H]3C[C@H](OC)[C@@H](OC(=O)c4ccc(OC)cc4)[C@H](C)O3)[C@@H](C)/C=C/C=C3\CO[C@@H]4/C(=N/OC)C(C)=C[C@@H](C(=O)O1)[C@]34O)O2 (some centres not stated),9.3,0,6.8
CCC(C)[C@H]1O[C@]2(CC[C@@H]1C)C[C@@H]1C[C@@H](C/C=C(\C)[C@@H](O[C@H]3C[C@H](OC)[C@@H](OC(=O)c4ccc(OC)cc4)[C@H](C)O3)[C@@H](C)/C=C/C=C3\CO[C@@H]4[C@H](O)C(C)=C[C@@H](C(=O)O1)[C@]34O)O2 (some centres not stated),92.3,100,9.7
CCC(C)[C@H]1O[C@]2(CC[C@@H]1C)C[C@@H]1C[C@@H](C/C=C(\C)[C@@H](O[C@H]3C[C@H](OC)[C@@H](OC(=O)c4ccccc4OC)[C@H](C)O3)[C@@H](C)/C=C/C=C3\CO[C@@H]4[C@H](O)C(C)=C[C@@H](C(=O)O1)[C@]34O)O2 (some centres not stated),100,98.2,16.4
